Assay results: ChEMBL document CHEMBL1155350, “Antitubercular activity of alpha,omega-diaminoalkanes, H2N(CH2)nNH2” (Bioorg Med Chem Lett, 2009)
Values after ≈ are worked out from the molar mass of the structure shown. Active and inactive are the calls of the source. The calls are words filed in the database; no cut-off is given here.

How the values were obtained:
[1] = Cytotoxicity against Mycobacterium bovis Bacillus Calmette-Guerin infected mouse J774 macrophage assessed as cell viability at 100 ug/mL after 48 hrs by MTT assay; assay type: cell-based; details: J774 macrophage cells infected with Mycobacterium bovis BCG, read-out: Activity
[2] = Cytotoxicity against mouse J774 macrophage assessed as cell viability at 10 ug/mL after 48 hrs by MTT assay; assay type: cell-based; details: J774 macrophage cells, read-out: Activity
[3] = Cytotoxicity against Mycobacterium bovis Bacillus Calmette-Guerin infected mouse J774 macrophage assessed as cell viability at 1 ug/mL after 48 hrs by MTT assay; assay type: cell-based; details: J774 macrophage cells infected with Mycobacterium bovis BCG, read-out: Activity
[4] = Cytotoxicity against Mycobacterium bovis Bacillus Calmette-Guerin infected mouse J774 macrophage assessed as cell viability at 10 ug/mL after 48 hrs by MTT assay; assay type: cell-based; details: J774 macrophage cells infected with Mycobacterium bovis BCG, read-out: Activity
[5] = system: Mycobacterium tuberculosis; test: Antimicrobial activity against Mycobacterium tuberculosis H37Rv ATCC 27294 assessed as minimum inhibitory concentration […] by micro plate Alamar blue assay; assay type: functional
[6] = Cytotoxicity against mouse J774 macrophage assessed as cell viability at 100 ug/mL after 48 hrs by MTT assay; assay type: cell-based; details: J774 macrophage cells, read-out: Activity
[7] = Cytotoxicity against mouse J774 macrophage assessed as cell viability at 1 ug/mL after 48 hrs by MTT assay; assay type: cell-based; details: J774 macrophage cells, read-out: Activity

SMILES: NCCCCCCCCN [DIAMINOOCTANE]
- viability at 48 h, 100 ug/mL [1]: 64%
- viability at 48 h, 10 ug/mL [2]: 100%
- viability at 48 h, 1 ug/mL [3]: 68%
- viability at 48 h, 10 ug/mL [4]: 64%
- MIC [5]: inactive
- viability at 48 h, 100 ug/mL [6]: 95%
- viability at 48 h, 1 ug/mL [7]: 100%

SMILES: NCCCCN [PUTRESCINE]
- viability at 48 h, 100 ug/mL [1]: 82%
- viability at 48 h, 10 ug/mL [2]: 100%
- viability at 48 h, 1 ug/mL [3]: 100%
- viability at 48 h, 10 ug/mL [4]: 90%
- MIC [5]: inactive
- viability at 48 h, 100 ug/mL [6]: 100%
- viability at 48 h, 1 ug/mL [7]: 100%

SMILES: NCCCCCN
- viability at 48 h, 100 ug/mL [1]: 98%
- viability at 48 h, 10 ug/mL [2]: 100%
- viability at 48 h, 1 ug/mL [3]: 100%
- viability at 48 h, 10 ug/mL [4]: 100%
- MIC [5]: inactive
- viability at 48 h, 100 ug/mL [6]: 100%
- viability at 48 h, 1 ug/mL [7]: 100%

SMILES: NCCCCCCCCCN
- viability at 48 h, 100 ug/mL [1]: 71%
- viability at 48 h, 10 ug/mL [2]: 100%
- viability at 48 h, 1 ug/mL [3]: 100%
- viability at 48 h, 10 ug/mL [4]: 100%
- MIC [5]: 3.12 µg/mL (≈ 19.7 µM)
- viability at 48 h, 100 ug/mL [6]: 100%
- viability at 48 h, 1 ug/mL [7]: 100%

SMILES: NCCCCCCCN
- viability at 48 h, 100 ug/mL [1]: 70%
- viability at 48 h, 10 ug/mL [2]: 100%
- viability at 48 h, 1 ug/mL [3]: 79%
- viability at 48 h, 10 ug/mL [4]: 78%
- MIC [5]: inactive
- viability at 48 h, 100 ug/mL [6]: 100%
- viability at 48 h, 1 ug/mL [7]: 100%

SMILES: NCCCCCCCCCCCCN
- viability at 48 h, 100 ug/mL [1]: 38%
- viability at 48 h, 10 ug/mL [2]: 100%
- viability at 48 h, 1 ug/mL [3]: 56%
- viability at 48 h, 10 ug/mL [4]: 49%
- MIC [5]: 2.5 µg/mL (≈ 12.5 µM)
- viability at 48 h, 100 ug/mL [6]: 100%
- viability at 48 h, 1 ug/mL [7]: 100%

SMILES: NCCCN
- viability at 48 h, 100 ug/mL [1]: 89%
- viability at 48 h, 10 ug/mL [2]: 100%
- viability at 48 h, 1 ug/mL [3]: 100%
- viability at 48 h, 10 ug/mL [4]: 94%
- MIC [5]: inactive
- viability at 48 h, 100 ug/mL [6]: 100%
- viability at 48 h, 1 ug/mL [7]: 100%

SMILES: NCCCCCCCCCCCN
- viability at 48 h, 100 ug/mL [1]: 40%
- viability at 48 h, 10 ug/mL [2]: 100%
- viability at 48 h, 1 ug/mL [3]: 58%
- viability at 48 h, 10 ug/mL [4]: 53%
- MIC [5]: 3.12 µg/mL (≈ 16.7 µM)
- viability at 48 h, 100 ug/mL [6]: 100%
- viability at 48 h, 1 ug/mL [7]: 100%

SMILES: CC[C@@H](CO)NCCN[C@@H](CC)CO [ETHAMBUTOL]
- viability at 48 h, 100 ug/mL [1]: 85%
- viability at 48 h, 10 ug/mL [2]: 93%
- viability at 48 h, 1 ug/mL [3]: 92%
- viability at 48 h, 10 ug/mL [4]: 88%
- viability at 48 h, 100 ug/mL [6]: 82%
- viability at 48 h, 1 ug/mL [7]: 100%

SMILES: NCCCCCCN
- viability at 48 h, 100 ug/mL [1]: 76%
- viability at 48 h, 10 ug/mL [2]: 100%
- viability at 48 h, 1 ug/mL [3]: 98%
- viability at 48 h, 10 ug/mL [4]: 92%
- MIC [5]: inactive
- viability at 48 h, 100 ug/mL [6]: 100%
- viability at 48 h, 1 ug/mL [7]: 100%

SMILES: NCCCCCCCCCCN
- viability at 48 h, 100 ug/mL [1]: 42%
- viability at 48 h, 10 ug/mL [2]: 100%
- viability at 48 h, 1 ug/mL [3]: 56%
- viability at 48 h, 10 ug/mL [4]: 34%
- MIC [5]: 3.12 µg/mL (≈ 18.1 µM)
- viability at 48 h, 100 ug/mL [6]: 94%
- viability at 48 h, 1 ug/mL [7]: 100%

SMILES: NCCN [ETHYLENEDIAMINE]
- viability at 48 h, 100 ug/mL [1]: 29%
- viability at 48 h, 10 ug/mL [2]: 100%
- viability at 48 h, 1 ug/mL [3]: 35%
- viability at 48 h, 10 ug/mL [4]: 23%
- MIC [5]: inactive
- viability at 48 h, 100 ug/mL [6]: 100%
- viability at 48 h, 1 ug/mL [7]: 100%
